The results in this text go back to ChEMBL document CHEMBL1135262, “Noncovalent tripeptidic thrombin inhibitors incorporating amidrazone, amine and amidine functions at P1” (Bioorg Med Chem Lett, 2002).

Some results are limits rather than exact numbers.

Data set [1] is described as follows: Compound was evaluated for its pharmacokinetic parameter maximum plasma concentration (Cmax) after oral administration to rats. It is filed as ADME, organism-based. Set-up: route oral. The note with it: rat.
The target in the next data set is Prothrombin (Homo sapiens, UniProt P00734). The experiment in a line: Binding affinity against human thrombin.
The target of another data set is T1, Serine protease 1 (Bos taurus, UniProt P00760).
T1 sequence (P00760 whole entry): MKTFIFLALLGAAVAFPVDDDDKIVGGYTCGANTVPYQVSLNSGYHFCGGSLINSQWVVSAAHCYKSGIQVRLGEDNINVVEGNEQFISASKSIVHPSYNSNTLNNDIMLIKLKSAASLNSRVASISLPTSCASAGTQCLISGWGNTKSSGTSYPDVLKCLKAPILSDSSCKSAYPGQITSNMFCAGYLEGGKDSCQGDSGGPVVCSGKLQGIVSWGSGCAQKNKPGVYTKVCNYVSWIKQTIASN
Description: Binding affinity against bovine trypsin.

A short description of data set [2]: Compound was evaluated for its pharmacokinetic parameter maximum area under curve AUCmax. Set-up: time AUCmax. It is filed as ADME, organism-based. The note with it: rat, in vivo.
Data set [3] concerns Rattus norvegicus. The experiment in a line: Compound was evaluated for its ability to inhibit thrombus formation in rat model of venous thrombosis at a dose 1 mg/kg. The note with it: read-out: Inhibition.
The subject of data set [4] is Rattus norvegicus. Description: Compound was evaluated for its ability to inhibit thrombus formation in rat model of venous thrombosis at a dose 0.5 mg/kg. To be noted: read-out: Inhibition.
The target in data set [5] is T2, Coagulation factor X (Homo sapiens, UniProt P00742). Description: Binding affinity for human Coagulation factor Xa; Inactive.
T2 sequence (P00742 41-179 limits assumed): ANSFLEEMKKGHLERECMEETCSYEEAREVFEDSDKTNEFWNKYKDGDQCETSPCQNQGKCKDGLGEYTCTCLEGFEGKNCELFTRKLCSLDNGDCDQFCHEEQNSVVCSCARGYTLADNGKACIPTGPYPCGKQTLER
T2 sequence (P00742 235-488 limits assumed): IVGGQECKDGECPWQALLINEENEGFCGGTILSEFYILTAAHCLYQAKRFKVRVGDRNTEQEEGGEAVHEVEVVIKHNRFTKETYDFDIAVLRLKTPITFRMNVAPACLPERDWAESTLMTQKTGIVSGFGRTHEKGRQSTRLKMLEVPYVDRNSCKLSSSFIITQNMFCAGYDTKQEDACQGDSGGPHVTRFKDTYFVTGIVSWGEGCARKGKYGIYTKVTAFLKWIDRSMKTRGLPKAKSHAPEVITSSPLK
Data set [6] addresses T2, Coagulation factor X. Description: Compound was evaluated for the binding affinity against human Coagulation factor Xa.
In data set [7] the test system is Rattus norvegicus. The experiment in a line: Compound at a dose 5 mg/kg was administered intravenously and evaluated for its ability to inhibit thrombus formation in rat model of venous thrombosis; value ranges from 30-67%. The class given is functional. To be noted: route intravenous.
The subject of data set [8] is Rattus norvegicus. The experiment in a line: Compound (dose 5 mg/kg) was administered intravenously and evaluated for its ability to inhibit thrombus formation in rat model of venous thrombosis; value ranges from 30-67%. The class given is functional. To be noted: route intravenous.
Data set [9] concerns Rattus norvegicus. The experiment in a line: Compound at a dose 1 mg/kg was administered intravenously and evaluated for its ability to inhibit thrombus formation in rat model of venous thrombosis. To be noted: route intravenous. It is filed as functional.
Data set [10] is filed under the species Rattus norvegicus. Description: animal or person. To be noted: iv, read-out: Inhibition.

For the molecule `N=C(N)c1ccc(CNC(=O)[C@@H]2CCCN2C(=O)[C@H](NS(=O)(=O)NC2CCCCC2)C(c2ccccc2)c2ccccc2)cc1.O=C(O)C(F)(F)F`, the Cmax (usually the peak of the concentration-time curve) in [1] was less than 300 ng/mL. The results for the Ki on Prothrombin and on Serine protease 1 were 0.003 nM and 0.25 nM, respectively.
Regarding `N=C(N)c1ccc(CNC(=O)[C@@H]2CCCN2C(=O)[C@H](NS(=O)(=O)Cc2ccccc2)C(c2ccccc2)c2ccccc2)cc1.O=C(O)C(F)(F)F`, in [1], the Cmax is 900 ng/mL. Also, the AUC (usually the area under the concentration-time curve, a measure of exposure) in [2] was found to be 68 µg·h/mL. Besides, the figures for the inhibition constant Ki on Prothrombin and on Serine protease 1 were 0.005 nM and 0.58 nM, respectively.
`N=C(N)c1ccc(CNC(=O)[C@@H]2CCCN2C(=O)[C@H](NS(N)(=O)=O)C(c2ccccc2)c2ccccc2)cc1.O=C(O)C(F)(F)F`: the peak level in data set [1] (Cmax) was 2800 ng/mL. In addition, the AUC in data set [2] is 272 µg·h/mL. Further, the inhibitory constant (Ki) (usually a dissociation constant, usually derived from enzyme kinetics or from competition with a known ligand) is 0.003 nM at Prothrombin and 0.3 nM on Serine protease 1. The inhibition in vivo at 1 mg/kg in the data set with Rattus norvegicus [3] was 100%. Further, in the data set on Rattus norvegicus [4], the inhibition in vivo at 0.5 mg/kg is 80%.
Regarding `N=C(N)c1ccc(CNC(=O)[C@@H]2CCCN2C(=O)[C@H](NCC(=O)O)C(c2ccccc2)c2ccccc2)cc1.O=C(O)C(F)(F)F`, the Cmax in data set [1] was found to be 1300 ng/mL. In addition, in data set [2], the exposure (AUC) was found to be 120 µg·h/mL. For the same molecule, the figures for the Ki at Prothrombin and on Serine protease 1 were 0.015 nM and 3 nM, respectively.
`N=C(N)c1ccc(CNC(=O)[C@@H]2CCCN2C(=O)[C@H](Nc2ccccc2)C(c2ccccc2)c2ccccc2)cc1.O=C(O)C(F)(F)F`: the concentration in data set [1] peaked (Cmax) at 300 ng/mL. Further, the area under the curve (AUC) in data set [2] turned out to be 53 µg·h/mL. Moreover, the Ki at Serine protease 1 amounted to 1.5 nM.
`COP(=O)(N[C@@H](C(=O)N1CCC[C@H]1C(=O)NCc1ccc(C(=N)N)cc1)C(c1ccccc1)c1ccccc1)OC.O=C(O)C(F)(F)F` yielded a maximum concentration (Cmax) in data set [1] of 4000 ng/mL. In data set [2], this molecule registered an area under the curve (AUC) of 271 µg·h/mL. Also, the results for the Ki at Prothrombin and on Serine protease 1 were 0.044 nM and 2.9 nM, respectively.
In turn, `N=C(N)c1ccc(CNC(=O)[C@@H]2CCCN2C(=O)[C@H](NS(=O)(=O)O)C(c2ccccc2)c2ccccc2)cc1.O=C(O)C(F)(F)F` came in with a Cmax in data set [1] of 550 ng/mL. Moreover, in data set [2], the AUC amounted to 35 µg·h/mL. For the same molecule, the Ki at Prothrombin stood at 0.1 nM; at Serine protease 1, 4.4 nM.
In the same order, the values of `COC(=O)N[C@@H](C(=O)N1CCC[C@H]1C(=O)NCc1ccc(C(=N)N)cc1)C(c1ccccc1)c1ccccc1.O=C(O)C(F)(F)F` are 3900 ng/mL, 594 µg·h/mL, 0.036 nM and 0.31 nM.
As for `CC(=O)N[C@@H](C(=O)N1CCC[C@H]1C(=O)NCc1ccc(C(=N)N)cc1)C(c1ccccc1)c1ccccc1.O=C(O)C(F)(F)F`, the highest level in [1] (Cmax) was 3000 ng/mL. Besides, in data set [2], the AUC turned out to be 244 µg·h/mL. Affinity at Prothrombin was put at a Ki of 0.16 nM.
With `N=C(N)c1ccc(CNC(=O)[C@@H]2CCCN2C(=O)[C@H](N)C(c2ccccc2)c2ccccc2)cc1.O=C(O)C(F)(F)F`, the peak concentration (Cmax) in data set [1] is 1400 ng/mL. Moreover, the area under the curve (AUC) in data set [2] was 107 µg·h/mL. Further, on Serine protease 1, the Ki was found to be 2.5 nM.
`CC(=O)N[C@@H](C(=O)N1CCC[C@H]1C(=O)NCc1ccc(C(=N)NN)s1)C(c1ccccc1)c1ccccc1`: the Ki is 105 nM at Prothrombin and “Not Active” on Coagulation factor X [5].
Take `N=C(NN)c1ccc(CNC(=O)[C@@H]2CCCN2C(=O)[C@H](NCC(=O)O)C(c2ccccc2)c2ccccc2)s1`: the Ki at Prothrombin was 31 nM; at Serine protease 1 it was 1100 nM; on Coagulation factor X [5], “Not Active”.
As to `CS(=O)(=O)N[C@H](Cc1ccc(Cl)c(Cl)c1)C(=O)N1CCC[C@H]1C(=O)NCc1ccc(C(=N)N)cc1`, the figures for the inhibitory constant (Ki) on Prothrombin, on Serine protease 1 and at Coagulation factor X [6] were 0.05 nM, 0.8 nM and 120 nM, respectively.
For `CS(=O)(=O)N[C@@H](C(=O)N1CCC[C@H]1C(=O)NCc1ccc(CN)s1)C(c1ccccc1)c1ccccc1`, the inhibition in vivo at 5 mg/kg in the data set on Rattus norvegicus [7] was 30%. The Ki on Serine protease 1 was 85 nM; at Coagulation factor X [5] it was “Not Active”.
In the data set on Rattus norvegicus [8], `CS(=O)(=O)N[C@@H](C(=O)N1CCC[C@H]1C(=O)NCc1cc(CN)cs1)C(c1ccccc1)c1ccccc1` yielded an inhibition in vivo at 5 mg/kg of 30%. Also, the Ki at Prothrombin is 2.4 nM; on Serine protease 1, 68 nM; on Coagulation factor X [5] it was “Not Active”.
In turn, `CS(=O)(=O)N[C@@H](C(=O)N1CCC[C@H]1C(=O)NCc1ccc(C(=N)N)cc1)C(c1ccccc1)c1ccccc1` came in with a peak concentration (Cmax) in data set [1] of 2700 ng/mL. For the same molecule, the area under the curve (AUC) in [2] was 263 µg·h/mL. The inhibitory constant (Ki) at Prothrombin came to 0.003 nM; at Serine protease 1, 0.7 nM; on Coagulation factor X [6], 300 nM. In the data set with Rattus norvegicus [9], this molecule came in with an inhibition in vivo at 1 mg/kg of 70%.
On to `CC(C)(C)OC(=O)N[C@@H](C(=O)N1CCC[C@H]1C(=O)NCc1ccc(C(=N)NN)s1)C(c1ccccc1)c1ccccc1`, for which the Ki entry on Coagulation factor X [5] is recorded as “Not Active”.
`CS(=O)(=O)N[C@@H](C(=O)N1CCC[C@H]1C(=O)NCc1cc(C(N)=NN)cs1)C(c1ccccc1)c1ccccc1`: the inhibitory constant (Ki) stood at 2.2 nM at Prothrombin, 250 nM on Serine protease 1 and 59000 nM at Coagulation factor X [6].
For the molecule `CS(=O)(=O)N[C@@H](C(=O)N1CCC[C@H]1C(=O)NCc1ccc(CN)c(N)c1)C(c1ccccc1)c1ccccc1`, the Ki at Prothrombin is 12 nM; at Serine protease 1, 11 nM; on Coagulation factor X [5], “Not Active”.
As for `CS(=O)(=O)N[C@@H](C(=O)N1CCC[C@H]1C(=O)NCc1ccc(C(=N)N)cc1)C1CCCCC1`, the inhibitory constant (Ki) on Prothrombin was 0.5 nM; at Serine protease 1, 9.9 nM; at Coagulation factor X [6] it was 5000 nM.
In the case of `COC(=O)N[C@@H](C(=O)N1CCC[C@H]1C(=O)NCC#Cc1c[nH]cn1)C(c1ccccc1)c1ccccc1`, the affinity on Serine protease 1, expressed as Ki, was 24000 nM.
`Cc1cc(CNC(=O)[C@@H]2CCCN2C(=O)[C@H](NS(C)(=O)=O)C(c2ccccc2)c2ccccc2)ccc1CN`: the Ki on Prothrombin was 32 nM; at Serine protease 1, 110 nM; at Coagulation factor X [5] it was “Not Active”.
Regarding `CS(=O)(=O)N[C@@H](C(=O)N1CCC[C@H]1C(=O)NCc1csc(C(=N)NN)c1)C(c1ccccc1)c1ccccc1`, the inhibition constant (Ki) on Prothrombin was 1.8 nM; at Serine protease 1, 540 nM; at Coagulation factor X [5], “Not Active”.
For `CS(=O)(=O)N[C@@H](C(=O)N1CCC[C@H]1C(=O)NCc1ccc(CN)nc1)C(c1ccccc1)c1ccccc1`, the results for the Ki on Prothrombin, at Serine protease 1 and at Coagulation factor X [5] were 6 nM, 220 nM and “Not Active”, respectively. For the same molecule, in the data set listed under Rattus norvegicus [10], the inhibition in vivo at 5 mg/kg came out at 30%.
For `CS(=O)(=O)N[C@@H](C(=O)N1CCC[C@H]1C(=O)NCc1ccc(/C(N)=N/N)s1)C(c1ccccc1)c1ccccc1`, the values for the Ki on Serine protease 1 and on Coagulation factor X [6] were 12 nM and 193 nM, respectively.
In the case of `CS(=O)(=O)N[C@H](CC1CCCCC1)C(=O)N1CCC[C@H]1C(=O)NCc1ccc(C(=N)N)cc1`, the Ki turned out to be 0.02 nM on Prothrombin, 1.3 nM at Serine protease 1 and 200 nM on Coagulation factor X [6].
Regarding `CS(=O)(=O)N[C@@H](C(=O)N1CCC[C@H]1C(=O)NCc1ccc(CN)cc1)C(c1ccccc1)c1ccccc1`, the inhibition constant Ki at Prothrombin was 4 nM; on Serine protease 1 it was 9.9 nM; on Coagulation factor X [5], “Not Active”. The inhibition in vivo at 5 mg/kg in the data set listed under Rattus norvegicus [10] was 30%.
For `CS(=O)(=O)N[C@@H](C(=O)N1CCC[C@H]1C(=O)NCc1ccc(C(=N)N)s1)C(c1ccccc1)c1ccccc1`, the Ki at Prothrombin was found to be 0.005 nM; on Serine protease 1 it was 0.6 nM; on Coagulation factor X [6], 360 nM.
As to `CS(=O)(=O)N[C@@H](C(=O)N1CCC[C@H]1C(=O)NCc1csc(CN)c1)C(c1ccccc1)c1ccccc1`, the figures for the Ki on Serine protease 1 and on Coagulation factor X [6] were 606 nM and 100000 nM, respectively. Moreover, in the data set listed under Rattus norvegicus [10], the inhibition in vivo at 5 mg/kg came out at 30%.
For `CS(=O)(=O)N[C@@H](C(=O)N1CCC[C@H]1C(=O)NCc1ccc(C(=N)NN)cc1)C(c1ccccc1)c1ccccc1`, the Ki at Prothrombin was 47 nM; on Serine protease 1, 150 nM; on Coagulation factor X [5], “Not Active”.
